Laboratory results: article PMC3889466 (Journal of medicinal chemistry, 2013)
pEC50: −log10 of the molar value. Where two headings read alike, the source gives them in different places.

How the values were obtained:
A/HK/7/87 = assay: microbe, parasite or virus in culture; assay type: cell-based, influenza A virus; details: for EC90: Influenza A virus, MDCK, 24 h, read-out: Activity against A/HK/7/87 EC90
A/M2 wt = A/M2 wt (Influenza A virus, UniProt P0DOF5); details: cited from earlier work
[1] = test system: Influenza A/H1N1 (A/PR/8/34); assay type: cell-based, influenza A virus
MDCK cells [2] = test system: MDCK cells
MDCK cells [3] = test system: MDCK cells; remark: listed apart in the source
[4] = read-out: Antiviral EC50 Influenza A/H1N1 CPE
[5] = read-out: Antiviral EC50 Influenza A/H1N1 MTS
[6] = minimal alterations in cell morphology after 24 hr incubation
[7] = MDCK, minimal alterations in cell morphology after 72 hr

Sequence of A/M2 wt (P0DOF5 whole entry): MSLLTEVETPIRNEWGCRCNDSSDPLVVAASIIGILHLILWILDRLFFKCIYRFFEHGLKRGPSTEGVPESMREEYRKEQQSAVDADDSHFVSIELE

Compound | pEC50 [1, 4] | pEC50 [1, 5] | Cytotoxicity at 72 hr MCC (minimum cytotoxic concentration) (MDCK cells [2]; dog) [µM] | Activity against A/HK/7/87 EC99 (A/HK/7/87) [µM] | also measured
NC12CC3CC(CC(C3)C1)C2 [Amantadine, amantadine, reference compound] |  |  |  |  | Activity against A/HK/7/87 EC99 (A/HK/7/87; listed as Amt): ~ 1 μM
NC12C3CCC4C3C3C(CCC31)C42 [Compound 8] |  |  |  |  | Activity against the wt A/M2 channel (in words) (A/M2 wt): did not inhibit
NCC12C3CCC4C3C3C(CCC31)C42 [Compound 9] |  |  |  |  | Activity against the wt A/M2 channel (in words) (A/M2 wt): did not inhibit
C1=CC2C3C4C5C=CC4C24CNCC54C13 [Compound 10] |  |  |  |  | Activity against the wt A/M2 channel (in words) (A/M2 wt): promising activity
C1C2C1C1C3C4C5C6CC6C4C14CNCC54C23 (centres unmarked) [Compound 11] |  |  |  |  | Activity against the wt A/M2 channel (in words) (A/M2 wt): promising activity
CC12CC34CNCC3(C1)CC2(C)C4.Cl [Compound 14a, 7,8-Dimethyl-3-azatetracyclo[5.2.1.1^5,8.0^1,5]undecane hydrochloride] | < 4.00 | < 4.00 | 100 |  | 
C1NCC23CC4CC12CC4C3.Cl [Compound 14b, 3-azatetracyclo[5.2.1.1^5,8.0^1,5]undecane hydrochloride] | < 4.00 | < 4.00 | 100 |  | 
C1CCC23CC45CNCC4(CC2(C1)C5)C3.O=C(O)C(O)C(O)C(=O)O [Compound 14d, 12-Azapentacyclo[6.5.1.1^3,10.0^1,10.0^3,8]pentadecane (2R,3R)-tartrate] | < 4.00 | < 4.00 |  | >10 | EC90 (A/HK/7/87): < 1 µM; Cytotoxicity at 24 hr MCC (MDCK cells [3]; [6]): >50 µM; Cytotoxicity at 72 hr MCC (minimum cytotoxic concentration) (MDCK cells [2]; [7]): 4.0 µM
CN1CC23CC4(C)CC2(C1)CC4(C)C3.Cl [Compound 15a, 3,7,8-Trimethyl-3-azatetracyclo[5.2.1.1^5,8.0^1,5]undecane hydrochloride] | < 4.00 | < 4.00 | ≥20 |  | 
CN1CC23CC4CC2(CC4C3)C1.Cl [Compound 15b, 3-Methyl-3-azatetracyclo[5.2.1.1^5,8.0^1,5]undecane hydrochloride] | < 4.00 | < 4.00 | ≥100 |  | 
CC12CC34CN(C(=N)N)CC3(C1)CC2(C)C4.Cl [Compound 16a, 3-Amidino-7,8-dimethyl-3-azatetracyclo[5.2.1.1^5,8.0^1,5]undecane hydrochloride] | < 4.00 | < 4.00 | 4 | 0.79 | EC90 (A/HK/7/87): < 1 µM; Cytotoxicity at 24 hr MCC (MDCK cells [3]; dog): >50 µM
Cl.N=C(N)N1CC23CC4CC2(CC4C3)C1 [Compound 16b, 3-Amidino-3-azatetracyclo[5.2.1.1^5,8.0^1,5]undecane hydrochloride] | < 4.30 | < 4.30 |  | ≥38 | Cytotoxicity at 24 hr MCC (MDCK cells [3]; dog): >50 µM
Cl.N=C(N)N1CC23CC45CCCCC4(C2)CC3(C1)C5 [Compound 16d, 12-Amidino-12-azapentacyclo[6.5.1.1^3,10.0^1,10.0^3,8]pentadecane hydrochloride] | < 4.00 | < 4.00 | 4.0 | >2 | EC90 (A/HK/7/87): < 1 µM; Cytotoxicity at 24 hr MCC (MDCK cells [3]; dog): ≥10 µM
NC(=O)c1ncn([C@@H]2O[C@H](CO)[C@@H](O)[C@H]2O)n1 [Ribavirin, reference compound] |  |  |  | 11 | Cytotoxicity at 24 hr MCC (MDCK cells [3]; dog): >100 µM
CC(N)C12CC3CC(CC(C3)C1)C2 (centres unmarked) [Rimantadine, rimantadine, reference compound] |  |  |  | >4 | Cytotoxicity at 24 hr MCC (MDCK cells [3]; [6]): ≥500 µM; Cytotoxicity at 72 hr MCC (minimum cytotoxic concentration) (MDCK cells [2]; [7]): 500 µM
